From US5543396A, “Proline phosphonate derivatives” (priority 1994, dated 1996)

Tests used:
Human Placenta DPP-IV = molecular target: T1, Human Placenta DPP-IV (Homo sapiens, UniProt P27487); test: Inhibition of DPP-IV by peptidyl phosphonates, incubation method; format: biochemical; conditions: for % Inhibition 2 min / % Inhibition 30 min: [I] 0.12 mM, 0.05 M Tris pH 7.8, 5% Me2SO, substrate TFA.Ala-Pro-AFC 0.190 mM; for % Inhibition 2 min / % Inhibition 30 min / kobs /[I] for DPP-IV: 23° C.; for kobs /[I] for DPP-IV: 0.05 M Tris pH 7.8, 8% Me2SO, substrate TFA.Ala-Pro-AFC 0.2 mM; for inhibition of DPP-IV, in words: inhibitor 0.12 mM
T1 construct: from tissue; host or cells: human placenta
Procedure: Standard Assay of DPP-IV. DPP-IV was assayed in 450 μL of 50 mM Tris, pH 7.8, 0.2 mM Ala-Pro-AFC (freshly diluted from a 20 mM stock in DMF), and 5 μL of enzyme solution at 30° C. or in 2 mL of buffer, 0.2 mM Ala-Pro-AFC (diluted from 8 mM stock in Me2 SO) at 23° C. Fluorescence was measured at 400 nm excitation and 505 nm emission. One unit of DPP-IV is defined as the amount of enzyme that will hydrolyze 1.0 μmole of Ala-Pro-AFC per min at 25° C. and pH 7.8.
Enzyme Irreversible Inactivation--Incubation Method. An aliquot of inhibitor (25 or 50 μL) in Me2 SO was added to 0.28-0.55 mL of a buffered enzyme solution (0.83 munits for DPP-IV; 2.1 units for acetylcholinesterase; 0.07-4.5 μM for other enzymes) to initiate the inactivation reaction. Aliquots (20-250 μL) were withdrawn at various intervals and the residual enzymatic activity was measured at 23° C. as described below. The buffers were: 0.05M Tris, pH 7.8 for DPP-IV; 0.1M Hepes, 0.01M CaCl2, pH 7.5 for bovine trypsin; 0.1M Hepes, 0.5M NaCl, pH 7.5 for bovine chymotrypsin, PPE, and HLE; 0.1M phosphate, pH 7.5 for acetylcholinesterase; 50 mM Tris-HCl, 2 mM EDTA, 5 mM cysteine, (freshly prepared) pH 7.5 buffer for papain and 100 mM KH2 PO4, 1.33 mM EDTA, 2.7 mM cysteine (freshly prepared), pH 6.0 buffer for cathepsin B. […] The inhibitor concentrations are shown in the appropriate table. Stock solutions of substrates were prepared in Me2 SO and stored at -20° C. DPP-IV was assayed with TFA.Ala-Pro-AFC. Papain and cathepsin B were assayed with Bz-Arg-AMC and Z-Arg-Arg-AMC, respectively. The release of AMC were followed fluorometrically (excitation at 380 nm and emmision at 460 nm for AMC). Acetylcholinesterase was assayed with acetylthiocholine iodide in the presence of DTNB at 412 nm. Trypsin was assayed with Z-Phe-Gly-Arg-.rho.NA.HCl (0.09 mM), chymotrypsin was assayed with Suc-Phe-Thr-Phe-.rho.NA (0.48 mM), PPE and HLE were assayed with Suc-Ala-Ala-Ala-.rho.NA (0.44 mM) and MeO-Suc-Ala-Ala-Pro-Val-.rho.NA (0.24 mM), respectively. Peptide .rho.-nitroanilide hydrolysis was measured at 410 nm (ε410 =8,800 M ^1 cm^-1). Pseudo first-order inactivation rate constants (kobs) were obtained from plots of In vt /vo vs time, and the correlation coefficients were greater than 0.98.

[1] = Half-lives for spontaneous hydrolysis of inhibitors in buffer; format: physicochemical; conditions: 0.05 M Tris, pH 7.8 buffer, 8% Me2SO, 23° C.
Source text: Determination of Half-Lives for Spontaneous Hydrolysis of Inhibitors in Buffer. […] The spontaneous hydrolysis was monitored by following the increase in absorbance at 270 nm for phosphonates with phenoxy groups, at 280 nm for compounds with 4-.chlorophenoxy groups or at 277 nm for the 4-fluorophenoxy derivative. Half-lives were obtained from first-order plots of ln (Af -At) vs time, where At is the absorbance of the mixture at time t, and Af is the final absorbance of phosphonate monophenyl ester and phenol (or corresponding compounds). This was obtained from the absorbance of the solution which had remained constant for a few hours. All the plots gave correlation coefficients of 0.95 or greater.

DPP-IV = DPP-IV (Homo sapiens, UniProt P27487); test: Stability of inhibited DPP-IV; conditions: for recovery of enzyme activity of inhibited DPP-IV: after 24 h, excess inhibitor removed by centrifugation; for DPP-IV enzyme activity found after incubation with inhibitor: inhibitor 0.042-0.42 mM, pH 7.8 buffer, incubation for 1 h
Procedure: Excess inhibitors in the inhibited enzyme solution were removed by centrifugation of the diluted enzyme solution twice using Amicon microconcentrators.
Stability of Inhibited DPP-IV. […] Excess inhibitors was removed from diluted solutions of inactivated enzyme by centrifugation three times at 0° C. for 1 h each in Amicon Centricon-10 microconcentrators following addition of buffer. The enzyme activity of solution was assayed at various intervals as described above.

Chymotrypsin = Chymotrypsin (Bos taurus, UniProt P00766); test: Inhibition of chymotrypsin, incubation method; format: biochemical, bovine; conditions: for kobs /[I] Chymotrypsin: [I] 0.42 mM, 0.1 M Hepes, 0.5 M NaCl, pH 7.5, 8-9% Me2SO, 23° C., Suc-Phe-Thr-Phe-pNA 0.48 mM
Procedure: Inactivation rates of serine proteases by aryl diesters of peptidyl derivatives of α-aminoalkylphosphonates were measured by the incubation method. An aliquot of inhibitor (25 or 50 μl) in Me2 SO was added to a buffered enzyme solution (0.01-2.3 μM) to initiate the inactivation. Aliquots (50 μl) were withdrawn at various intervals and the residual enzymatic activity was measured. Me2 SO concentration in the reaction mixture was 8-12% (v/v). A 0.1M HEPES, 0.01M CaCl2, pH 7.5 buffer was utilized for trypsin and trypsin-like enzymes. A 0.1M HEPES, 0.5M NaCl, pH 7.5, was utilized for the other serine proteases. Peptide thioesters or peptide nitroanilides with the appropriate sequences were used as substrates for various serine proteases. All peptide thioesters hydrolysis rates were measured with the assay mixture containing 4,4'-dithiodipyridine (ε324 =19800M^-1 cm^-1). Peptide 4-nitroanilide hydrolysis was measured at 410 nm (ε410 =8800 M ^-1 cm^-1). First order inactivation rate constants (kobs) were obtained from plots of ln vt /vo vs time, and the correlation coefficients were greater then 0.98.
Enzyme Irreversible Inactivation--Incubation Method. An aliquot of inhibitor (25 or 50 μL) in Me2 SO was added to 0.28-0.55 mL of a buffered enzyme solution (0.83 munits for DPP-IV; 2.1 units for acetylcholinesterase; 0.07-4.5 μM for other enzymes) to initiate the inactivation reaction. Aliquots (20-250 μL) were withdrawn at various intervals and the residual enzymatic activity was measured at 23° C. as described below. The buffers were: 0.05M Tris, pH 7.8 for DPP-IV; 0.1M Hepes, 0.01M CaCl2, pH 7.5 for bovine trypsin; 0.1M Hepes, 0.5M NaCl, pH 7.5 for bovine chymotrypsin, PPE, and HLE; 0.1M phosphate, pH 7.5 for acetylcholinesterase; 50 mM Tris-HCl, 2 mM EDTA, 5 mM cysteine, (freshly prepared) pH 7.5 buffer for papain and 100 mM KH2 PO4, 1.33 mM EDTA, 2.7 mM cysteine (freshly prepared), pH 6.0 buffer for cathepsin B. The Me2 SO concentration in the reaction mixtures was 8-9% (v/v). The inhibitor concentrations are shown in the appropriate table. Stock solutions of substrates were prepared in Me2 SO and stored at -20° C. DPP-IV was assayed with TFA.Ala-Pro-AFC. Papain and cathepsin B were assayed with Bz-Arg-AMC and Z-Arg-Arg-AMC, respectively. The release of AMC were followed fluorometrically (excitation at 380 nm and emmision at 460 nm for AMC). Acetylcholinesterase was assayed with acetylthiocholine iodide in the presence of DTNB at 412 nm. Trypsin was assayed with Z-Phe-Gly-Arg-.rho.NA.HCl (0.09 mM), chymotrypsin was assayed with Suc-Phe-Thr-Phe-.rho.NA (0.48 mM), PPE and HLE were assayed with Suc-Ala-Ala-Ala-.rho.NA (0.44 mM) and MeO-Suc-Ala-Ala-Pro-Val-.rho.NA (0.24 mM), respectively. Peptide .rho.-nitroanilide hydrolysis was measured at 410 nm (ε410 =8,800 M ^1 cm^-1). […]

[2] = Hydrolysis in human plasma; format: in vitro ADME
Source text: Furthermore, they show excellent stability in human plasma. For example Suc-Val-Pro-Phe^P (OPh)2 has a hydrolysis half-time in human plasma of about 20 hrs. […] Thus they can be used under a variety of conditions. Phosphonates have the additional advantage of being very stable in plasma and will have a high effectiveness in […] vivo due to their long lifetimes.

T1 sequence (P27487 whole entry): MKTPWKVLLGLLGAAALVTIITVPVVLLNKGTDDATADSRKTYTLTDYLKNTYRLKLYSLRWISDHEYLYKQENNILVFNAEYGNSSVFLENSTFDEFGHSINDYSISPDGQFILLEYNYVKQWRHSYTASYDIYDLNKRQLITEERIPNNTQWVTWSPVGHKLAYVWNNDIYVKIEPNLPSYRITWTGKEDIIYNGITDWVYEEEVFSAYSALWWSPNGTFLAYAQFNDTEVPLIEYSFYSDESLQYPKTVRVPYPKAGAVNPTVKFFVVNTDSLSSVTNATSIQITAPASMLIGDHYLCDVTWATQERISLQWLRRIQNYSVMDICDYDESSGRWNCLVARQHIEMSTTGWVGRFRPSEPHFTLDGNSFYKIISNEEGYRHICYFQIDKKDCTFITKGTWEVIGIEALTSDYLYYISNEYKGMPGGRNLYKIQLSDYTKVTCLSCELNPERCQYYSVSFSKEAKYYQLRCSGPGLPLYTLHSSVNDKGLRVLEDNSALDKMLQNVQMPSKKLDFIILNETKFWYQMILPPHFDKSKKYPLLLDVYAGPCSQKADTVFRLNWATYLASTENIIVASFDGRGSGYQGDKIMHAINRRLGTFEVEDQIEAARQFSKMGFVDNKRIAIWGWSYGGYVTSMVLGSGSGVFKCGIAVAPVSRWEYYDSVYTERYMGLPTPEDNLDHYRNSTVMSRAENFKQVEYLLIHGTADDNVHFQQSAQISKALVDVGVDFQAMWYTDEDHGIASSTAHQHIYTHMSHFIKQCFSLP
DPP-IV, sequence (P27487 whole entry): as above

Compound: C[C@H](N)C(=O)N1CCCC1P(=O)(Oc1ccccc1)Oc1ccccc1.Cl (some centres unmarked) [Compound 6, Diphenyl Alanylpyrrolidine-2-phosphonate Hydrochloride]
- % Inhibition 2 min (Human Placenta DPP-IV; 2 min incubation): 0%
- % Inhibition 30 min (Human Placenta DPP-IV; 30 min incubation): 33%
- kobs /[I] for DPP-IV (Human Placenta DPP-IV; [I] 0.42 mM): 1.2 M⁻¹ s⁻¹
- inhibition of DPP-IV, in words (Human Placenta DPP-IV; 30 min incubation): showed some inhibitory potency
- t1/2, half-life for hydrolysis [1]: 23.1 h
- recovery of enzyme activity of inhibited DPP-IV (DPP-IV): did not regain enzyme activity
- DPP-IV enzyme activity found after incubation with inhibitor (DPP-IV): 30%

Compound: CC(=O)O.C[C@H](N)C(=O)N1CCCCC1P(=O)(Oc1ccccc1)Oc1ccccc1 (some centres unmarked) [Compound 7, Diphenyl Alanylpiperidine-2-phosphonate Acetate]
- % Inhibition 2 min (Human Placenta DPP-IV; 2 min incubation): 0%
- % Inhibition 30 min (Human Placenta DPP-IV; 30 min incubation): 100%
- kobs /[I] for DPP-IV (Human Placenta DPP-IV; [I] 0.42 mM): 12.6 M⁻¹ s⁻¹
- inhibition of DPP-IV, in words (Human Placenta DPP-IV; 30 min incubation): showed some inhibitory potency
- t1/2, half-life for hydrolysis [1]: > 72 h
- recovery of enzyme activity of inhibited DPP-IV (DPP-IV): did not regain enzyme activity
- DPP-IV enzyme activity found after incubation with inhibitor (DPP-IV): no enzyme activity

Compound: CC(=O)O.C[C@H](N)C(=O)N1CCCCC1P(=O)(O)Oc1ccccc1 (some centres unmarked) [Compound 8, Monophenyl Alanylpiperidine-2-phosphonate Acetate]
- % Inhibition 2 min (Human Placenta DPP-IV; 2 min incubation): 0%
- % Inhibition 30 min (Human Placenta DPP-IV; 30 min incubation): 0%
- inhibition of DPP-IV, in words (Human Placenta DPP-IV; 30 min incubation): did not show any inhibition

Compound: Br.N[C@@H](Cc1ccccc1)C(=O)N1CCCC1P(=O)(Oc1ccccc1)Oc1ccccc1 (some centres unmarked) [Compound 9, Diphenyl Phenylalanylpyrrolidine-2-phosphonate Hydrobromide]
- % Inhibition 2 min (Human Placenta DPP-IV; 2 min incubation): 0%
- % Inhibition 30 min (Human Placenta DPP-IV; 30 min incubation): 0%
- inhibition of DPP-IV, in words (Human Placenta DPP-IV; 30 min incubation): did not show any inhibition

Compound: Br.Br.NCCCC[C@H](N)C(=O)N1CCCC1P(=O)(Oc1ccccc1)Oc1ccccc1 (some centres unmarked) [Compound 10, Diphenyl Lysylpyrrolidine-2-phosphonate Dihydrobromide]
- % Inhibition 2 min (Human Placenta DPP-IV; 2 min incubation): 0%
- % Inhibition 30 min (Human Placenta DPP-IV; 30 min incubation): 0%
- kobs /[I] for DPP-IV (Human Placenta DPP-IV; [I] 0.42 mM): 1.7 M⁻¹ s⁻¹
- inhibition of DPP-IV, in words (Human Placenta DPP-IV; 30 min incubation): did not show any inhibition
- t1/2, half-life for hydrolysis [1]: 52 h

Compound: Cl.Cl.NCCCC[C@H](N)C(=O)N1CCCCC1P(=O)(Oc1ccccc1)Oc1ccccc1 (some centres unmarked) [Compound 11, Diphenyl Lysylpiperidine-2-phosphonate Dihydrochloride]
- % Inhibition 2 min (Human Placenta DPP-IV; 2 min incubation): 35%
- % Inhibition 30 min (Human Placenta DPP-IV; 30 min incubation): 88%
- kobs /[I] for DPP-IV (Human Placenta DPP-IV; [I] 0.42 mM): 4.2 M⁻¹ s⁻¹
- inhibition of DPP-IV, in words (Human Placenta DPP-IV; 2 min incubation): effectively inhibited
- inhibition of DPP-IV, in words (Human Placenta DPP-IV; 30 min incubation): showed some inhibitory potency
- t1/2, half-life for hydrolysis [1]: > 48 h

Compound: C[C@H](N)C(=O)N1CCCC1P(=O)(Oc1ccc(Cl)cc1)Oc1ccc(Cl)cc1.Cl (some centres unmarked) [Compound 12, Di(4-chlorophenyl) Alanylpyrrolidine-2-phosphonate Hydrochloride]
- % Inhibition 2 min (Human Placenta DPP-IV; 2 min incubation): 0%
- % Inhibition 30 min (Human Placenta DPP-IV; 30 min incubation): 100%
- kobs /[I] for DPP-IV (Human Placenta DPP-IV; [I] 0.42 mM): 28 M⁻¹ s⁻¹
- inhibition of DPP-IV, in words (Human Placenta DPP-IV; 30 min incubation): showed some inhibitory potency
- inhibition of chymotrypsin, in words (Chymotrypsin): very slowly
- kobs /[I] Chymotrypsin (Chymotrypsin): 26 M⁻¹ s⁻¹
- t1/2, half-life for hydrolysis [1]: 5.3 h
- recovery of enzyme activity of inhibited DPP-IV (DPP-IV): did not regain enzyme activity

Compound: C[C@H](N)C(=O)N1CCCCC1P(=O)(Oc1ccc(Cl)cc1)Oc1ccc(Cl)cc1.Cl (some centres unmarked) [Compound 13, Di(4-chlorophenyl) Alanylpiperidine-2-phosphonate Hydrochloride]
- kobs /[I] for DPP-IV (Human Placenta DPP-IV; [I] 0.042 mM): 156 M⁻¹ s⁻¹
- % Inhibition 2 min (Human Placenta DPP-IV; 2 min incubation): 88%
- % Inhibition 30 min (Human Placenta DPP-IV; 30 min incubation): 100%
- inhibition of DPP-IV, in words (Human Placenta DPP-IV; 2 min incubation): effectively inhibited
- inhibition of DPP-IV, in words (Human Placenta DPP-IV; 30 min incubation): showed some inhibitory potency
- inhibition of chymotrypsin, in words (Chymotrypsin): very slowly
- kobs /[I] Chymotrypsin (Chymotrypsin): 18 M⁻¹ s⁻¹
- t1/2, half-life for hydrolysis [1]: 67 h
- recovery of enzyme activity of inhibited DPP-IV (DPP-IV): did not regain enzyme activity
- DPP-IV enzyme activity found after incubation with inhibitor (DPP-IV): no enzyme activity

Compound: C[C@H](N)C(=O)N1CCCCC1P(=O)(Oc1ccc(F)cc1)Oc1ccc(F)cc1.Cl (some centres unmarked) [Compound 14, Di(4-fluorophenyl) Alanyl-piperidine-2-phosphonate Hydrochloride]
- kobs /[I] for DPP-IV (Human Placenta DPP-IV; [I] 0.42 mM): 12 M⁻¹ s⁻¹
- t1/2, half-life for hydrolysis [1]: > 68 h
- DPP-IV enzyme activity found after incubation with inhibitor (DPP-IV): no enzyme activity

Compound: Suc-Val-Pro-Phe^P (OPh)2
- hydrolysis half-time in human plasma [2]: about 20 hrs
